Source: patent US20240051968A1, “METHODS FOR TREATING SPINOCEREBELLAR ATAXIA TYPE 3” (PTC Therapeutics, Inc., priority 2021, published 2024)
pIC50: −log10 of the molar value.

Columns and labels:
ATXN3 pre-mRNA = assay: RT-qPCR Assay to Quantify Exon 4 Skipping in ATXN3 pre-mRNA in Cells; type: cell-based; details: cells incubated with compound 24 h, 7-point concentration curve, GAPDH control
Procedure: (§1) RT-qPCR Assay to Quantify Exon 4 Skipping in ATXN3 pre-mRNA in Cells Test compounds were serially diluted 3.16-fold in 100% DMSO to generate a 7-point concentration curve. Aliquots of 0.5 μL of diluted compounds were transferred to a 96-well flat bottom plate by a liquid handler. An aliquot of 0.5 μL DMSO was also transferred to separate wells and used as controls. Duplicate samples were set up for each compound concentration and for the DMSO control.
Cells were thawed and incubated in cell culture media (DMEM, 10% FBS, and 1% antibiotic cocktail) for 72 h. Cells were trypsinized, counted, and re-suspended to a concentration of 100,000 cells/mL in cell culture media. A 100 μL aliquot of the cell suspensions were plated at 10,000 cells per well in the compound containing 96 well microtiter plate and incubated for in a cell culture incubator (37° C., 5% CO2, 100% relative humidity).
After 24 h, media was aspirated from the cells and 50 μL of the RCL2 lysis buffer (10 mM Tris-HCL pH 7.4, 150 mM NaCl, 0.33% IGEPAL® CA-630) was added to each well and incubated at room temperature for 1 min. Chilled nuclease free water (50 μL per well) was added and the plates were immediately transferred on ice. After 1 min on ice, plates were frozen at −80° C. overnight.
Preparation of RT-qPCR Reaction Mixture:
An aliquot of 2 μL/well of the cell lysates was transferred using the liquid handler to the Armadillo 384-Well PCR plate containing 8 μL/well of the RT-qPCR reaction mixture that was prepared as detailed above. The plates were then sealed with MicroAmp™ Optical Adhesive Film followed by spinning down for 1 min and placed in the CFX384 thermocycler (BioRad).
The RT-qPCR was carried out at the following temperatures for the indicated time: • Step 1: 48° C. (30 min) • Step 2: 95° C. (10 min) • Step 3: 95° C. (15 sec) • Step 4: 60° C. (1 min); then, repeated Steps 3 and 4 for a total of 40 cycles.
The percent exon 4 skipping was calculated for each dose of compound treatment using Equations 1 and 2.
Data were fit to a dose response curve and the IC50 was interpolated using XLfit® statistical and curve fitting package.
An IC50 value between >2.0 μM and ≤3.0 μM is indicated by one star (*). […] IC50 value between >0.5 μM and ≤1.0 μM is indicated by four stars (****). An IC50 value ≤0.5 μM is indicated by five stars (*****).

[1] = test system: Total ATXN3 (tATXN3) protein; assay: Endogenous Total ATXN3 (tATXN3) Protein Assay (MSD immunoassay of cell lysates); type: cell-based; details: cells incubated with compound 48 h; 7-point concentration curve; MSD detection in cell lysate
Procedure: Endogenous Total ATXN3 (tATXN3) Protein Assay
Meso Scale Discovery (MSD) 96-well or 384-well plates were coated overnight at 4° C. with Ataxin 3 mouse monoclonal antibody (Invitrogen, MA3-082) at a concentration of 0.5 μg/mL in PBS (30 μL per well). Plates were then washed three times with 300 μL wash buffer (0.05% TWEEN®-20, polyethylene glycol sorbitan monolaurate, in PBS) and blocked (Meso Scale Diagnostics, R93BA-1; 5% BSA in PBS) for 2 h at room temperature with rotational shaking and then washed three times with wash buffer.
as §1, with “Test” for “RT-qPCR Assay to Quantify Exon 4 Skipping in ATXN3 pre-mRNA in Cells Test”
Cells were thawed and incubated in cell culture media (DMEM, 10% FBS, and 1% antibiotic cocktail) for 72 h. Cells were trypsinized, counted, and re-suspended to a concentration of 100,000 cells/mL in cell culture media. A 100 μL aliquot of the cell suspensions were plated at 10,000 cells per well in the compound containing 96 well microtiter plate and incubated for in a cell culture incubator (37° C., 5% CO2, 100% relative humidity). After 48 h, the medium was removed and 50-100 μL of lysis buffer (Meso Scale Diagnostics, R60TX-2) containing 1× halt protease inhibitor cocktail of (Thermo Scientific, Halt™ Protease Inhibitor Cocktail, 78430) per well was added to cells to provide a “cell lysate”. The plate was placed on a shaker at 4° C. for 30 minutes, then stored at −80° C.
Cell lysate samples (25 μL) were transferred to the antibody-coated MSD plate and incubated overnight at 4° C. After removal of the lysates, the plate was washed three times with wash buffer, and 25 μL of Ataxin 3 recombinant rabbit monoclonal antibody (Invitrogen, #702788) secondary antibody (diluted to 0.25 μg/mL in 0.05% TWEEN®-20 in blocking buffer) was added to each well and incubated with shaking for 1-2 h at room temperature. Following incubation with the secondary antibody, the wells were rinsed with wash buffer and then […] Anti Rabbit Antibody Goat SULFO-TAG Labeled (Meso Scale Diagnostics, R32AB-1) detecting antibody (diluted to 0.25 μg/mL in 0.05% TWEEN®-20 in blocking buffer) was added to each well and incubated with shaking for 1 h at room temperature. After rinsing three times with wash buffer, 150 μL of Read Buffer T with surfactant (tris-based buffer containing tripropylamine, Meso Scale Diagnostics, R92TC-1) were added to each empty well, and the plate was imaged on a SI 6000 imager (MSD) according to manufacturers' instructions provided for 96- or 384-well plates.

Row | SMILES | pIC50 (ATXN3 pre-mRNA) | pIC50 [1] | IC50, exon 4 skipping in ATXN3 pre-mRNA (ATXN3 pre-mRNA) | IC50 (average), total ATXN3 protein [1]
1 | Cc1c(C[C@@H](N)C(=O)N(C)C)sc2c(NCc3ccco3)cc(Cl)nc12 [Cpd 116, 3-(5-chloro-7-{[(furan-2-yl)methyl]amino}-3-methylthieno[3,2-b]pyridin-2-yl)-N,N-dimethyl-D-alaninamide] | ≥ 6.30 | ≥ 6.30 | – | –
2 | CS(=O)(=O)C[C@H](N)Cc1sc2c(NCc3ccco3)cc(Cl)nc2c1Br [Cpd 117, 2-[(2R)-2-amino-3-(methanesulfonyl)propyl]-3-bromo-5-chloro-N-[(furan-2-yl)methyl]thieno[3,2-b]pyridin-7-amine] | ≥ 6.30 | ≥ 6.30 | – | –
3 | CSC[C@H](N)Cc1sc2c(NCc3ccco3)cc(Cl)nc2c1Br [Cpd 118, 2-[(2R)-2-amino-3-(methylsulfanyl)propyl]-3-bromo-5-chloro-N-[(furan-2-yl)methyl]thieno[3,2-b]pyridin-7-amine] | ≥ 6.30 | ≥ 6.30 | – | –
4 | N[C@H](Cc1sc2c(NCc3ccco3)cc(Cl)nc2c1Cl)C(=O)Nc1ccccc1F [Cpd 120, 3-(3,5-dichloro-7-{[(furan-2-yl)methyl]amino}thieno[3,2-b]pyridin-2-yl)-N-(2-fluorophenyl)-D-alaninamide] | ≥ 6.30 | 6.00 to 6.30 | – | –
5 | N[C@H](Cc1sc2c(NCc3ccco3)cc(Cl)nc2c1Cl)C(=O)O [Cpd 121, 3-(3,5-dichloro-7-{[(furan-2-yl)methyl]amino}thieno[3,2-b]pyridin-2-yl)-D-alanine] | ≥ 6.30 | 6.00 to 6.30 | – | –
6 | N[C@H](Cc1sc2c(NCc3ccco3)cc(Cl)nc2c1Cl)C(=O)Nc1ccccc1 [Cpd 122, 3-(3,5-dichloro-7-{[(furan-2-yl)methyl]amino}thieno[3,2-b]pyridin-2-yl)-N-phenyl-D-alaninamide] | ≥ 6.30 | ≥ 6.30 | – | –
7 | C#C[C@H](N)Cc1sc2c(NCc3ccco3)cc(Cl)nc2c1C [Cpd 123, 2-[(2R)-2-aminobut-3-yn-1-yl]-3-methyl-5-chloro-N-[(furan-2-yl)methyl]thieno[3,2-b]pyridin-7-amine] | ≥ 6.30 | ≥ 6.30 | – | –
8 | C[C@H](F)[C@H](N)Cc1sc2c(NCc3nccs3)cc(Cl)nc2c1Br [Cpd 125, 2-[(2R,3S)-2-amino-3-fluorobutyl]-3-bromo-5-chloro-N-[(1,3-thiazol-2-yl)methyl]thieno[3,2-b]pyridin-7-amine] | ≥ 6.30 | ≥ 6.30 | – | –
9 | Cc1c(C[C@@H](N)[C@H](C)F)sc2c(NCc3cccs3)cc(Cl)nc12 [Cpd 126, 2-[(2R,3S)-2-amino-3-fluorobutyl]-5-chloro-3-methyl-N-[(thiophen-2-yl)methyl]thieno[3,2-b]pyridin-7-amine] | ≥ 6.30 | ≥ 6.30 | – | –
10 | C[C@H](N)C(O)c1sc2c(NCc3cccs3)cc(Cl)nc2c1Cl (stereo partly drawn) [Cpd 127, (2S)-2-amino-1-(3,5-dichloro-7-{[(thiophen-2-yl)methyl]amino}thieno[3,2-b]pyridin-2-yl)propan-1-ol] | ≥ 6.30 | ≥ 6.30 | – | –

Further lines, results first:

Row | pIC50 (ATXN3 pre-mRNA) | pIC50 [1] | IC50, exon 4 skipping in ATXN3 pre-mRNA (ATXN3 pre-mRNA) | IC50 (average), total ATXN3 protein [1] | SMILES
11 | ≥ 6.30 | ≥ 6.30 | – | – | Cc1c(C[C@@H](N)[C@H](C)F)sc2c(NCc3nccs3)cc(Cl)nc12 [Cpd 128, 2-[(2R,3S)-2-amino-3-fluorobutyl]-5-chloro-3-methyl-N-[(1,3-thiazol-2-yl)methyl]thieno[3,2-b]pyridin-7-amine]
12 | ≥ 6.30 | ≥ 6.30 | – | – | C[C@H](N)C(F)c1sc2c(NCc3cccs3)cc(Cl)nc2c1Cl (stereo partly drawn) [Cpd 130, 2-[(2S)-2-amino-1-fluoropropyl]-3,5-dichloro-N-[(thiophen-2-yl)methyl]thieno[3,2-b]pyridin-7-amine]
13 | ≥ 6.30 | 6.00 to 6.30 | – | – | C[C@H](N)C(F)(F)c1sc2c(NCc3cccs3)cc(Cl)nc2c1Cl [Cpd 132, 2-[(2S)-2-amino-1,1-difluoropropyl]-3,5-dichloro-N-[(thiophen-2-yl)methyl]thieno[3,2-b]pyridin-7-amine]
14 | ≥ 6.30 | ≥ 6.30 | – | – | Cc1c(C[C@@H](N)C(=O)Nc2cnccn2)sc2c(NCc3ccco3)cc(Cl)nc12 [Cpd 135, 3-(5-chloro-7-{[(furan-2-yl)methyl]amino}-3-methylthieno[3,2-b]pyridin-2-yl)-N-pyrazin-2-yl-D-alaninamide]
15 | ≥ 6.30 | ≥ 6.30 | – | – | Cc1c(C[C@@H](N)C(=O)Nc2ccncc2)sc2c(NCc3ccco3)cc(Cl)nc12 [Cpd 140, 3-(5-chloro-7-{[(furan-2-yl)methyl]amino}-3-methylthieno[3,2-b]pyridin-2-yl)-N-pyridin-4-yl-D-alaninamide]
16 | 5.82 to 6.00 | 5.82 to 6.00 | – | – | Cc1c(C[C@@H](N)C(=O)N(C)c2ccccc2)sc2c(NCc3ccco3)cc(Cl)nc12 [Cpd 141, 3-(5-chloro-7-{[(furan-2-yl)methyl]amino}-3-methylthieno[3,2-b]pyridin-2-yl)-N-methyl-N-phenyl-D-alaninamide]
17 | ≥ 6.30 | ≥ 6.30 | – | – | Cc1c([C@H](C)[C@H](C)N)sc2c(NCc3ccco3)cc(Cl)nc12 [Cpd 150, 2-[(2R,3S)-3-aminobutan-2-yl]-5-chloro-N-[(furan-2-yl)methyl]-3-methylthieno[3,2-b]pyridin-7-amine]
18 | 5.82 to 6.00 | 5.82 to 6.00 | – | – | Cc1c([C@@H](C)[C@H](C)N)sc2c(NCc3ccco3)cc(Cl)nc12 [Cpd 151, 2-[(2S,3S)-3-aminobutan-2-yl]-5-chloro-N-[(furan-2-yl)methyl]-3-methylthieno[3,2-b]pyridin-7-amine]
19 | – | – | inactive | inactive | Cc1c(CCN)sc2c(NCc3ccco3)cc(Cl)nc12 [Cpd 152, 2-(2-aminoethyl)-5-chloro-N-[(furan-2-yl)methyl]-3-methylthieno[3,2-b]pyridin-7-amine]
20 | – | – | inactive | inactive | C[C@H](N)C(O)c1sc2c(NCc3ccco3)cc(Cl)nc2c1Br (stereo partly drawn) [Cpd 153, (2S)-2-amino-1-(3-bromo-5-chloro-7-{[(furan-2-yl)methyl]amino}thieno[3,2-b]pyridin-2-yl)propan-1-ol]
21 | ≥ 6.30 | ≥ 6.30 | – | – | C[C@H](N)C(F)c1sc2c(NCc3ccco3)cc(Cl)nc2c1Br (stereo partly drawn) [Cpd 154, 2-[(2S)-2-amino-1-fluoropropyl]-3-bromo-5-chloro-N-[(furan-2-yl)methyl]thieno[3,2-b]pyridin-7-amine]
22 | – | – | inactive | inactive | C[C@H](N)C(O)c1sc2c(NCc3cccs3)cc(Cl)nc2c1Br (stereo partly drawn) [Cpd 155, (2S)-2-amino-1-(3-bromo-5-chloro-7-{[(thiophen-2-yl)methyl]amino}thieno[3,2-b]pyridin-2-yl)propan-1-ol]
